Results taken from PubChem BioAssay (NCI).
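48-hour exposure; five concentrations; linearly interpolated endpoints. TGI is the concentration that stops growth completely.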

How the values were obtained:
Experiment in all cases: NCI-60 cell line screen, 48 h
786-0 renal = tested on: 786-0 renal
A498 renal = tested on: A498 renal
A549 NSCLC = tested on: A549 NSCLC
ACHN renal = tested on: ACHN renal
CAKI-1 renal = tested on: CAKI-1 renal
CCRF-CEM leukemia = tested on: CCRF-CEM leukemia
COLO 205 colon = tested on: COLO 205 colon
DU-145 prostate = tested on: DU-145 prostate
EKVX NSCLC = tested on: EKVX NSCLC
HCC-2998 colon = tested on: HCC-2998 colon
HCT-116 colon = tested on: HCT-116 colon
HCT-15 colon = tested on: HCT-15 colon
HL-60(TB) leukemia = tested on: HL-60(TB) leukemia
HOP-62 NSCLC = tested on: HOP-62 NSCLC
HOP-92 NSCLC = tested on: HOP-92 NSCLC
HS 578T breast = tested on: HS 578T breast
HT29 colon = tested on: HT29 colon
IGROV1 ovarian = tested on: IGROV1 ovarian
K-562 leukemia = tested on: K-562 leukemia
KM12 colon = tested on: KM12 colon
LOX IMVI melanoma = tested on: LOX IMVI melanoma
M14 melanoma = tested on: M14 melanoma
MALME-3M melanoma = tested on: MALME-3M melanoma
MDA-MB-231 breast = tested on: MDA-MB-231 breast
MDA-MB-435 = tested on: MDA-MB-435
MDA-N = tested on: MDA-N
MOLT-4 leukemia = tested on: MOLT-4 leukemia
NCI-H226 lung = tested on: NCI-H226 lung
NCI-H23 lung = tested on: NCI-H23 lung
NCI-H460 lung = tested on: NCI-H460 lung
NCI-H522 lung = tested on: NCI-H522 lung
NCI/ADR-RES ovarian = tested on: NCI/ADR-RES ovarian
OVCAR-3 ovarian = tested on: OVCAR-3 ovarian
OVCAR-4 ovarian = tested on: OVCAR-4 ovarian
OVCAR-5 ovarian = tested on: OVCAR-5 ovarian
OVCAR-8 ovarian = tested on: OVCAR-8 ovarian
PC-3 prostate = tested on: PC-3 prostate
RPMI-8226 leukemia = tested on: RPMI-8226 leukemia
RXF 393 renal = tested on: RXF 393 renal
SF-268 CNS = tested on: SF-268 CNS
SF-295 CNS = tested on: SF-295 CNS
SF-539 CNS = tested on: SF-539 CNS
SK-MEL-2 melanoma = tested on: SK-MEL-2 melanoma
SK-MEL-28 melanoma = tested on: SK-MEL-28 melanoma
SK-MEL-5 melanoma = tested on: SK-MEL-5 melanoma
SK-OV-3 ovarian = tested on: SK-OV-3 ovarian
SN12C renal = tested on: SN12C renal
SNB-19 CNS = tested on: SNB-19 CNS
SR leukemia = tested on: SR leukemia
SW-620 colon = tested on: SW-620 colon
T-47D breast = tested on: T-47D breast
TK-10 renal = tested on: TK-10 renal
U251 CNS = tested on: U251 CNS
UACC-257 melanoma = tested on: UACC-257 melanoma
UACC-62 melanoma = tested on: UACC-62 melanoma
UO-31 renal = tested on: UO-31 renal
MCF7 breast = tested on: MCF7 breast
SNB-75 CNS = tested on: SNB-75 CNS

For N#C/C(C(=O)Nc1ccccc1)=C(/N)N1CCCC1, the TGI (786-0 renal) was > 100 µM, the TGI (A498 renal) was > 100 µM and the TGI (A549 NSCLC) was > 100 µM. For the same compound, the TGI (ACHN renal) was > 100 µM, the TGI (CAKI-1 renal) was > 100 µM and the TGI (CCRF-CEM leukemia) was > 100 µM. The TGI (COLO 205 colon) was > 100 µM, the TGI (DU-145 prostate) was > 100 µM and the TGI (EKVX NSCLC) was > 100 µM. The TGI (HCC-2998 colon) was > 100 µM, the TGI (HCT-116 colon) was > 100 µM and the TGI (HCT-15 colon) was > 100 µM. The TGI (HL-60(TB) leukemia) was > 100 µM, the TGI (HOP-62 NSCLC) was > 100 µM and the TGI (HOP-92 NSCLC) was > 100 µM. The TGI (HS 578T breast) was > 100 µM, the TGI (HT29 colon) was > 100 µM and the TGI (IGROV1 ovarian) was > 100 µM. The TGI (K-562 leukemia) was > 100 µM, the TGI (KM12 colon) was > 100 µM and the TGI (LOX IMVI melanoma) was > 100 µM. For the same compound, the TGI (M14 melanoma) was > 100 µM, the TGI (MALME-3M melanoma) was > 100 µM and the TGI (MDA-MB-231 breast) was > 100 µM. For the same compound, the TGI (MDA-MB-435) was > 100 µM, the TGI (MDA-N) was > 100 µM and the TGI (MOLT-4 leukemia) was > 100 µM. For the same compound, the TGI (NCI-H226 lung) was > 100 µM, the TGI (NCI-H23 lung) was > 100 µM and the TGI (NCI-H460 lung) was > 100 µM. For the same compound, the TGI (NCI-H522 lung) was > 100 µM, the TGI (NCI/ADR-RES ovarian) was > 100 µM and the TGI (OVCAR-3 ovarian) was > 100 µM. For the same compound, the TGI (OVCAR-4 ovarian) was > 100 µM, the TGI (OVCAR-5 ovarian) was > 100 µM and the TGI (OVCAR-8 ovarian) was > 100 µM. The TGI (PC-3 prostate) was > 100 µM, the TGI (RPMI-8226 leukemia) was > 100 µM and the TGI (RXF 393 renal) was > 100 µM. The TGI (SF-268 CNS) was > 100 µM, the TGI (SF-295 CNS) was > 100 µM and the TGI (SF-539 CNS) was > 100 µM. The TGI (SK-MEL-2 melanoma) was > 100 µM, the TGI (SK-MEL-28 melanoma) was > 100 µM and the TGI (SK-MEL-5 melanoma) was > 100 µM. For the same compound, the TGI (SK-OV-3 ovarian) was > 100 µM, the TGI (SN12C renal) was > 100 µM and the TGI (SNB-19 CNS) was > 100 µM. The TGI (SR leukemia) was > 100 µM, the TGI (SW-620 colon) was > 100 µM and the TGI (T-47D breast) was > 100 µM. The TGI (TK-10 renal) was > 100 µM, the TGI (U251 CNS) was > 100 µM and the TGI (UACC-257 melanoma) was > 100 µM. The TGI (UACC-62 melanoma) was > 100 µM and the TGI (UO-31 renal) was > 100 µM.

With CC1CN=C(N(Cc2ccc(F)cc2)C(=O)Nc2ccc(Cl)cc2)S1 (stereo unspecified) the TGI (786-0 renal) was > 100 µM, the TGI (A498 renal) was 67.4 µM and the TGI (A549 NSCLC) was > 100 µM. The TGI (ACHN renal) was > 100 µM, the TGI (CAKI-1 renal) was > 100 µM and the TGI (CCRF-CEM leukemia) was > 100 µM. For the same compound, the TGI (COLO 205 colon) was > 100 µM, the TGI (DU-145 prostate) was > 100 µM and the TGI (EKVX NSCLC) was 69.2 µM. The TGI (HCC-2998 colon) was 76.6 µM, the TGI (HCT-116 colon) was > 100 µM and the TGI (HCT-15 colon) was > 100 µM. The TGI (HL-60(TB) leukemia) was 91 µM, the TGI (HOP-62 NSCLC) was > 100 µM and the TGI (HS 578T breast) was > 100 µM. For the same compound, the TGI (HT29 colon) was 65.8 µM, the TGI (IGROV1 ovarian) was > 100 µM and the TGI (K-562 leukemia) was > 100 µM. The TGI (KM12 colon) was > 100 µM, the TGI (LOX IMVI melanoma) was 54.5 µM and the TGI (M14 melanoma) was 17.4 µM. For the same compound, the TGI (MALME-3M melanoma) was > 100 µM, the TGI (MCF7 breast) was 64 µM and the TGI (MDA-MB-231 breast) was > 100 µM. For the same compound, the TGI (MDA-N) was 61.1 µM, the TGI (MOLT-4 leukemia) was > 100 µM and the TGI (NCI-H23 lung) was > 100 µM. The TGI (NCI-H460 lung) was > 100 µM, the TGI (NCI/ADR-RES ovarian) was > 100 µM and the TGI (OVCAR-3 ovarian) was > 100 µM. For the same compound, the TGI (OVCAR-4 ovarian) was > 100 µM, the TGI (OVCAR-5 ovarian) was > 100 µM and the TGI (OVCAR-8 ovarian) was > 100 µM. The TGI (PC-3 prostate) was > 100 µM, the TGI (RPMI-8226 leukemia) was > 100 µM and the TGI (SF-268 CNS) was > 100 µM. For the same compound, the TGI (SF-295 CNS) was > 100 µM, the TGI (SF-539 CNS) was > 100 µM and the TGI (SK-MEL-2 melanoma) was 37.5 µM. For the same compound, the TGI (SK-MEL-28 melanoma) was 71.7 µM, the TGI (SK-MEL-5 melanoma) was 29.4 µM and the TGI (SK-OV-3 ovarian) was > 100 µM. For the same compound, the TGI (SN12C renal) was > 100 µM, the TGI (SNB-19 CNS) was > 100 µM and the TGI (SNB-75 CNS) was > 100 µM. For the same compound, the TGI (SR leukemia) was > 100 µM, the TGI (SW-620 colon) was > 100 µM and the TGI (T-47D breast) was > 100 µM. The TGI (TK-10 renal) was > 100 µM, the TGI (U251 CNS) was > 100 µM and the TGI (UACC-257 melanoma) was > 100 µM. The TGI (UO-31 renal) was > 100 µM.

For O=C(Nc1ccccn1)/C(=C\C(=O)c1ccc(Cl)cc1)Nc1ccccc1, the TGI (786-0 renal) was > 10 µM, the TGI (A549 NSCLC) was > 10 µM and the TGI (CAKI-1 renal) was > 10 µM. For the same compound, the TGI (CCRF-CEM leukemia) was > 10 µM, the TGI (COLO 205 colon) was > 10 µM and the TGI (DU-145 prostate) was > 10 µM. The TGI (EKVX NSCLC) was > 10 µM, the TGI (HCC-2998 colon) was > 10 µM and the TGI (HCT-15 colon) was > 10 µM. The TGI (HL-60(TB) leukemia) was > 10 µM, the TGI (HOP-62 NSCLC) was > 10 µM and the TGI (HOP-92 NSCLC) was > 10 µM. For the same compound, the TGI (HT29 colon) was > 10 µM, the TGI (IGROV1 ovarian) was > 10 µM and the TGI (K-562 leukemia) was > 10 µM. For the same compound, the TGI (KM12 colon) was > 10 µM, the TGI (LOX IMVI melanoma) was > 10 µM and the TGI (M14 melanoma) was > 10 µM. For the same compound, the TGI (MALME-3M melanoma) was > 10 µM, the TGI (MCF7 breast) was > 10 µM and the TGI (MDA-MB-231 breast) was > 10 µM. For the same compound, the TGI (MDA-MB-435) was > 10 µM, the TGI (MDA-N) was > 10 µM and the TGI (MOLT-4 leukemia) was > 10 µM. For the same compound, the TGI (NCI-H23 lung) was > 10 µM, the TGI (OVCAR-4 ovarian) was > 10 µM and the TGI (OVCAR-8 ovarian) was > 10 µM. The TGI (PC-3 prostate) was > 10 µM, the TGI (RPMI-8226 leukemia) was > 10 µM and the TGI (RXF 393 renal) was > 10 µM. For the same compound, the TGI (SF-268 CNS) was > 10 µM, the TGI (SF-295 CNS) was > 10 µM and the TGI (SK-MEL-28 melanoma) was > 10 µM. For the same compound, the TGI (SK-MEL-5 melanoma) was > 10 µM, the TGI (SK-OV-3 ovarian) was > 10 µM and the TGI (SN12C renal) was > 10 µM. For the same compound, the TGI (SNB-75 CNS) was > 10 µM, the TGI (SR leukemia) was > 10 µM and the TGI (SW-620 colon) was > 10 µM. The TGI (T-47D breast) was > 10 µM, the TGI (TK-10 renal) was > 10 µM and the TGI (UACC-257 melanoma) was > 10 µM. The TGI (UACC-62 melanoma) was > 10 µM.
